Assays:
D. immitis microfilariae = test: Dirofilaria immitis, microfilariae (DiMF) in vitro motility assay; format: cell-based; conditions: Dirofilaria immitis, 72 h, read-out: DiMF minimally effective dose (MEC)
Haemonchus contortus L3 = test: microbe, parasite or virus in culture; format: cell-based; conditions: Haemonchus contortus, 96 h, read-out: HcL3 Minimal Effective Concentration (MEC)

Compound | minimal effective concentration (D. immitis microfilariae) | minimal effective concentration (Haemonchus contortus L3)
O=C(NCc1ccnc(Cl)c1)n1c2c(c3cccc(Cl)c31)CN(C/C=C/c1ccc(F)cc1)CC2 [Example 269, (E)-6-chloro-N-((2-chloropyridin-4-yl)methyl)-2-(3-(4-fluorophenyl)allyl)-1,2,3,4-tetrahydro-5H-pyrido[4,3-b]indole-5-carboxamide] | 3.3 µM | > 100 µM
COc1ccc(/C=C/CN2CCc3c(c4cccc(Cl)c4n3C(=O)NCc3ccnc(Cl)c3)C2)cc1 [Example 270, (E)-6-chloro-N-((2-chloropyridin-4-yl)methyl)-2-(3-(4-methoxyphenyl)allyl)-1,2,3,4-tetrahydro-5H-pyrido[4,3-b]indole-5-carboxamide] | 10 µM | > 100 µM
O=C(NCc1ccnc(Cl)c1)n1c2c(c3cccc(Cl)c31)CN(C/C=C/c1ccc(OC(F)(F)F)cc1)CC2 [Example 271, (E)-6-chloro-N-((2-chloropyridin-4-yl)methyl)-2-(3-(4-(trifluoromethoxy)-phenyl)allyl)-1,2,3,4-tetrahydro-5H-pyrido[4,3-b]indole-5-carboxamide] | 5.7 µM | > 100 µM
O=C(NCc1ccnc(Cl)c1)n1c2c(c3cccc(Cl)c31)CN(C/C=C/c1ccc(C(F)(F)F)cc1)CC2 [Example 272, (E)-6-chloro-N-((2-chloropyridin-4-yl)methyl)-2-(3-(4-(trifluoromethyl)-phenyl)allyl)-1,2,3,4-tetrahydro-5H-pyrido[4,3-b]indole-5-carboxamide] | 10 µM | > 100 µM
O=C(NCc1cnc(Cl)s1)n1c2c(c3cccc(Cl)c31)CN(C/C=C/c1ccc(Cl)cc1)CC2 [Example 273, (E)-6-chloro-2-(3-(4-chlorophenyl)allyl)-N-((2-chlorothiazol-5-yl)methyl)-1,2,3,4-tetrahydro-5H-pyrido[4,3-b]indole-5-carboxamide] | 18.2 µM | > 100 µM
O=C(NCc1ccnc(Cl)c1)n1c2c(c3cc(Cl)c(Cl)cc31)CN(C/C=C/c1ccc(Cl)c(F)c1)CC2 [Example 274, (E)-7,8-dichloro-2-(3-(4-chloro-3-fluorophenyl)allyl)-N-((2-chloropyridin-4-yl)methyl)-1,2,3,4-tetrahydro-5H-pyrido[4,3-b]indole-5-carboxamide] | 33 µM | 1.8 µM
N#Cc1ccc(/C=C/CN2CCc3c(c4cc(Cl)c(Cl)cc4n3C(=O)NCc3ccnc(Cl)c3)C2)cc1F [Example 275, (E)-7,8-dichloro-N-((2-chloropyridin-4-yl)methyl)-2-(3-(4-cyano-3-fluorophenyl)allyl)-1,2,3,4-tetrahydro-5H-pyrido[4,3-b]indole-5-carboxamide] | > 100 µM | 0.3 µM
O=C(NCc1ccnc(Cl)c1)n1c2c(c3cc(Cl)c(Cl)cc31)CN(C/C=C/c1ccc(F)cc1F)CC2 [Example 276, (E)-7,8-dichloro-N-((2-chloropyridin-4-yl)methyl)-2-(3-(2,4-difluorophenyl)allyl)-1,2,3,4-tetrahydro-5H-pyrido[4,3-b]indole-5-carboxamide] | 18.2 µM | 0.3 µM
O=C(NCc1ccnc(Cl)c1)n1c2c(c3cc(Cl)c(Cl)cc31)CN(C/C=C/c1ccc(F)c(Cl)c1)CC2 [Example 277, (E)-7,8-dichloro-2-(3-(3-chloro-4-fluorophenyl)allyl)-N-((2-chloropyridin-4-yl)methyl)-1,2,3,4-tetrahydro-5H-pyrido[4,3-b]indole-5-carboxamide] | > 100 µM | 1 µM
O=C(NCc1ccnc(Cl)c1)n1c2c(c3cc(Cl)c(Cl)cc31)CN(C/C=C/c1ccc(F)c(F)c1)CC2 [Example 278, (E)-7,8-dichloro-N-((2-chloropyridin-4-yl)methyl)-2-(3-(3,4-difluorophenyl)allyl)-1,2,3,4-tetrahydro-5H-pyrido[4,3-b]indole-5-carboxamide] | 18.2 µM | 1.8 µM
N#Cc1ccc(/C=C/CN2CCc3c(c4cc(Cl)c(Cl)cc4n3C(=O)NCc3ccnc(Cl)c3)C2)cc1 [Example 279, (E)-7,8-dichloro-N-((2-chloropyridin-4-yl)methyl)-2-(3-(4-cyanophenyl)allyl)-1,2,3,4-tetrahydro-5H-pyrido[4,3-b]indole-5-carboxamide] | > 100 µM | 1.8 µM
O=C(NCc1ccnc(Cl)c1)n1c2c(c3cc(Cl)c(Cl)cc31)CN(C/C=C/c1ccc(Cl)cc1)CC2 [Example 280, (E)-7,8-dichloro-2-(3-(4-chlorophenyl)allyl)-N-((2-chloropyridin-4-yl)methyl)-1,2,3,4-tetrahydro-5H-pyrido[4,3-b]indole-5-carboxamide] | > 100 µM | 0.3 µM
O=C(NCc1ccnc(Cl)c1)n1c2c(c3cc(Cl)c(Cl)cc31)CN(C/C=C/c1ccc(Cl)c(Cl)c1)CC2 [Example 281, (E)-7,8-dichloro-N-((2-chloropyridin-4-yl)methyl)-2-(3-(3,4-dichlorophenyl)allyl)-1,2,3,4-tetrahydro-5H-pyrido[4,3-b]indole-5-carboxamide] | > 100 µM | 1 µM
COc1ccc(/C=C/CN2CCc3c(c4cc(Cl)c(Cl)cc4n3C(=O)NCc3ccnc(Cl)c3)C2)cc1 [Example 283, (E)-7,8-dichloro-N-((2-chloropyridin-4-yl)methyl)-2-(3-(4-methoxyphenyl)allyl)-1,2,3,4-tetrahydro-5H-pyrido[4,3-b]indole-5-carboxamide] | 3.3 µM | 0.5 µM
O=C(NCc1ccnc(Cl)c1)n1c2c(c3cc(Cl)c(Cl)cc31)CN(C/C=C/c1ccc(OC(F)(F)F)cc1)CC2 [Example 284, (E)-7,8-dichloro-N-((2-chloropyridin-4-yl)methyl)-2-(3-(4-(trifluoro-methoxy)phenyl)allyl)-1,2,3,4-tetrahydro-5H-pyrido[4,3-b]indole-5-carboxamide] | 10 µM | > 100 µM
O=C(NCc1ccnc(Cl)c1)n1c2c(c3cc(Cl)c(Cl)cc31)CN(C/C=C/c1ccc(C(F)(F)F)cc1)CC2 [Example 285, (E)-7,8-dichloro-N-((2-chloropyridin-4-yl)methyl)-2-(3-(4-(trifluoromethyl)-phenyl)allyl)-1,2,3,4-tetrahydro-5H-pyrido[4,3-b]indole-5-carboxamide] | 10 µM | > 100 µM
O=C(NCc1ccnc(F)c1)n1c2c(c3cc(Cl)c(Cl)cc31)CN(C/C=C/c1ccc(Cl)cc1)CC2 [Example 292, (E)-7,8-dichloro-2-(3-(4-chlorophenyl)allyl)-N-((2-fluoropyridin-4-yl)methyl)-1,2,3,4-tetrahydro-5H-pyrido[4,3-b]indole-5-carboxamide] | 5.7 µM | 3.3 µM
O=C(NCc1ccnc(F)c1)n1c2c(c3c(Cl)c(Cl)ccc31)CN(C/C=C/c1ccc(Cl)cc1)CC2 [Example 293, (E)-8,9-dichloro-2-(3-(4-chlorophenyl)allyl)-N-((2-fluoropyridin-4-yl)methyl)-1,2,3,4-tetrahydro-5H-pyrido[4,3-b]indole-5-carboxamide] | 5.7 µM | 3.3 µM
